Measured values as given in US20090215710A1, “CARBOHYDRATE BASED TOLL-LIKE RECEPTOR (TLR) ANTAGONISTS” (RELIANCE LIFE SCIENCES PVT. LTD., priority 2007, published 2009).

Tests used:
TNF-α = assay: TNF response to increasing concentration of LPS in THP-1 cells; type: cell-based, human; conditions: LPS 1000 ng/ml
Method: The present invention has also conducted experiments to check the ability of RSCL-0409 to inhibit LPS induced TNF-α secretion from THP-1 cells, wherein the studies involved the stimulation of THP-1 cells with increasing concentrations of LPS (62.5 ng/ml to 1000 ng/ml) with and without pre-treatment of cells with different concentrations of RSCL-0409.

TLR6 = molecular target: T1, TLR6 (Homo sapiens, UniProt Q9Y2C9); assay: TLR6 ligand induced TNF-α secretion (ELISA); type: cell-based; conditions: cells treated with TLR6 ligand 75 ng/ml
T1 construct: endogenous in cells; host or cells: THP-1 monocytes and/or PBMCs
T1 sequence (Q9Y2C9 32-796): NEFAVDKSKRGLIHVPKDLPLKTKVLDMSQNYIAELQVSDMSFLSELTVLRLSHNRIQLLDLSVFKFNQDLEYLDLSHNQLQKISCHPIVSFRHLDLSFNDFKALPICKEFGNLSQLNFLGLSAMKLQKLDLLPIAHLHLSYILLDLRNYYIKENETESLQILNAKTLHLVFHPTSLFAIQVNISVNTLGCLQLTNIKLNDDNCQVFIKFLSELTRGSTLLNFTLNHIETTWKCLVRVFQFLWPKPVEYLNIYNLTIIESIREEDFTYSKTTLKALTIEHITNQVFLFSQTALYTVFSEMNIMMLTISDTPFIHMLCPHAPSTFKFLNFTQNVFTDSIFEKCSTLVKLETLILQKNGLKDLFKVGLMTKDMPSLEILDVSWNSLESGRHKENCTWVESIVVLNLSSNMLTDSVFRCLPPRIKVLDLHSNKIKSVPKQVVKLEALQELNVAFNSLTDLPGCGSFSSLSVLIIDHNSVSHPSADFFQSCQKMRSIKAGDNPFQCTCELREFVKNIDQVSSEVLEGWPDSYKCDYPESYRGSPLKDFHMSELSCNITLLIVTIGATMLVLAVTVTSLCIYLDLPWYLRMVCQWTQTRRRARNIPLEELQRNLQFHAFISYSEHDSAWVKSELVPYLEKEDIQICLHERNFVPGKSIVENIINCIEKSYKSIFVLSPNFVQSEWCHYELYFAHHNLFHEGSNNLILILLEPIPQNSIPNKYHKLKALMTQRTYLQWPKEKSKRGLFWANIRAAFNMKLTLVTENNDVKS
Method: The present invention has checked the effect of various TLR ligands on THP-1 monocytes, PBMCs and their ability to activate and release TNF-α. For this purpose about 9 TLR ligands were used. These ligands were obtained from Apotech Cat; APO-54N-018-K100 and assayed for TNF-α release in culture supernatants.
THP-1 and PBMCs (2×10^5 cells/well) were plated in 96-well plate. The cells were pretreated with RSCL-0409 in DMSO 1 hr prior to TLR ligand treatment. Following 1 hr pre-treatment, the cells were treated with TLR ligands [TLR2, TLR5 and TLR6-75 ng/ml each, TLR3-75 μg/ml, TLR4-750 ng/ml, TLR7, TLR8 and TLR9-7.5 μg/ml) for 24 hrs. The culture supernatant were collected after the stipulated time and assayed for TNF-α release using a Duoset Enzyme-Linked ImmunoSorbent Assay (ELISA) detection Kit (R&D systems, MN 55413, USA; Cat: DY-210 E). Simultaneously supernatants were collected from cells treated with ligands without pre-treatment with RSCL-0409 and only RSCL-0409 without ligand treatment.

TNF-α mRNA = TNF-α mRNA expression in LPS stimulated THP-1 cells (real-time PCR); type: cell-based, human; conditions: THP-1, LPS 250 ng/ml 1 hr
Method: To determine whether the suppressive effect of RSCL-0409 on the cytokine production occurs at mRNA expression level, quantitative real-time PCR was used to examine TNF-α and IL-6 mRNA expression in THP-1 cells stimulated with LPS. THP-1 cells (3×10^6 cells/well) were stimulated with 250 ng/ml LPS in the presence or absence of RSCL-0409 at indicated concentrations for the 1 hr. Total RNA was isolated from these cells and cDNA was synthesized. LPS treated cells acted as positive control. All quantitative real-time PCR (TaqMan™) primers and probes were obtained from Applied Biosystems (ABI), Weiterstadt, Germany. For detection of TNF-α, pre-developed assay reagents (Universal master mix as obtained from Applied Biosystems included all reagents including Taq-polymerase apart from specific primers and probes) were used. The PCR was performed utilizing 1 μl cDNA per reaction in triplicates of 25 μl volume on an ABI 7500 Realtime PCR machine using a 2-step PCR protocol.
Quantization of mRNA was performed using the comparative threshold cycle method and analysed using standard software and expressed in fold change. The fold change of TNF-α (FIG. 5a) and IL-6 (FIG. 5b) mRNA in treated cells over control was obtained after correction for the amount of β-actin. […] The expression levels of both TNF and IL-6 decreased following 1 hr pretreatment with RSCL-0409 in the presence of LPS. […]

NF-κB = NF-κB SEAP reporter assay in THP-1 CD14 Blue cells; type: cell-based, human; conditions: LPS 250 ng/ml, 24 hr
Method: THP-1 CD14 Blue cells (Invivogen, San Diego, Calif., USA) transfected with a SEAP reporter construct in which the reporter expression was regulated by the NF-κB promoter were stimulated with LPS (250 ng/ml) with or without RSCL-0409 for 24 hr. […] The reporter activity was determined using Quanti Blue kit (Invivogen). The data (FIG. 8) is plotted as the relative change of reporter activity. NS; not significant, ** P value <0.01, *** P value <0.001 are statistics for Cells Vs RSCL-0409 treated and LPS treated vs. RSCL-0409 followed by LPS treatment respectively. These observations further confirm that the RSCL-0409 inhibits LPS induced TLR mediated activation of NF-κB transcription factor.

effect on TNF-α secretion (TLR6): no effect observed
SMILES: COc1ccc(OC2OC3COC(c4ccccc4)OC3C(OC3OC(COC(=O)CCC(C)=O)C(OC(=O)CCl)C(OC(C)=O)C3OC(C)=O)C2NC(=O)C(Cl)(Cl)Cl)cc1 [RSCL-0409, p-Methoxy phenyl-O-(2,3-di-O-acetyl-4-O-chloroacetyl-6-O-levulinoyl-β-D-glucopyranosyl)-(1-3)-2-deoxy-2-trichloroacetamido-4,6-O-benzylidene-α-D-glucopyranoside]
concentration inhibiting LPS induced TNF-α secretion (as low as) (TNF-α): 10 µM
TNF-α mRNA expression (TNF-α mRNA): down regulated TNF-α to almost control levels
SEAP reporter activity (NF-κB promoter) (NF-κB): blocked in a dose dependent manner
